{"source": "ChEMBL document CHEMBL5725765", "about": "“Inhibitors of lysine specific demethylase-1” (2017)", "biological_target": "Lysine-specific histone demethylase 1A (Homo sapiens, UniProt O60341)", "test": "In Vitro Enzyme Inhibition Assay: This assay determines the ability of a test compound to inhibit LSD1 demethylase activity.", "data": [{"smiles": "Cn1c(N2CCC(N)CC2)nc(-c2ccc(C#N)c(F)c2)c(-c2ccc3c(cnn3C)c2)c1=O", "values": [{"measurement": "IC50", "value": "< 100", "unit": "nM"}]}, {"smiles": "Cn1c(N2CCC(N)CC2)nc(-c2ccc(C#N)c(F)c2)c(-c2ccc3c(ccn3C)c2)c1=O", "values": [{"measurement": "IC50", "value": "< 100", "unit": "nM"}]}, {"smiles": "Cn1c(N2CCC(N)CC2)nc(-c2ccc(O)cc2)c(-c2ccc3c(ccn3C)c2)c1=O", "values": [{"measurement": "IC50", "value": "> 10000", "unit": "nM"}]}, {"smiles": "Cn1cc2cc(-c3c(-c4ccc(C#N)cc4)nc(N4CCC(N)CC4)n(C)c3=O)ccc2n1", "values": [{"measurement": "IC50", "value": "< 100", "unit": "nM"}]}, {"smiles": "Cn1c(N2CCC(N)CC2)nc(-c2ccc(C#N)cc2)c(-c2ccc3c(cnn3C)c2)c1=O", "values": [{"measurement": "IC50", "value": "< 100", "unit": "nM"}]}, {"smiles": "Cn1c(N2CCC(N)CC2)nc(-c2ccc(C#N)c(F)c2)c(-c2ccc3cc[nH]c3c2)c1=O", "values": [{"measurement": "IC50", "value": "< 100", "unit": "nM"}]}, {"smiles": "Cn1c(N2CCC(N)CC2)nc(-c2ccc(C#N)c(F)c2)c(-c2ccc(C(F)(F)F)nc2)c1=O", "values": [{"measurement": "IC50", "value": "< 100", "unit": "nM"}]}]}
